Legend:
[1] = system: Daphnia; assay: Aquatic Toxicity Daphnia; assay type: in vivo
Description: (§1) Generally, the toxicity of tin compounds increases as the organic substituents on the tin atom increase from one to two to three whereas there is a decrease in toxicity with increasing alkyl chain length where the organotin compound is alkyl substituted. However, the extraordinary decrease in toxicity in TOTO due to alkyl chain length is quite unexpected. The relatively low toxicity of TOTO which makes it especially suitable in industrial coating applications is illustrated by the following: […]

[2] = system: Flathead Minnow; assay: Aquatic Toxicity Flathead Minnow; assay type: in vivo
Description: as §1

[3] = system: Rats; assay: Acute Oral toxicity; assay type: in vivo
Description: as §1

[4] = Toxicity of TOTO compared with TBTO; details: in vivo
Description: as §1

[5] = system: Salmonella and E. Coli; assay: Mutation Assays Ames/Salmonella and E. Coli; assay type: cell-based
Description: as §1

[6] = system: Rabbits; assay: Primary Eye Irritation; assay type: in vivo
Description: as §1

[7] = system: Rabbits; assay: Primary Dermal Irritation; assay type: in vivo
Description: as §1

[8] = Acute Dermal toxicity; assay type: in vivo
Description: as §1

For `CCC[CH2][Sn]([CH2]CCC)([CH2]CCC)[O][Sn]([CH2]CCC)([CH2]CCC)[CH2]CCC` [TBTO, Bis(tributyltin) oxide], the “Aquatic Toxicity 48 h LC50 Daphnia (comment, TBTO)” value [1] was 0.002 µg/mL and the “Aquatic Toxicity 96 h LC50 Flathead Minnow (comment, TBTO)” value [2] was 0.05 µg/mL.

For `CCCCCCC[CH2][Sn]([CH2]CCCCCCC)([CH2]CCCCCCC)[O][Sn]([CH2]CCCCCCC)([CH2]CCCCCCC)[CH2]CCCCCCC` [TOTO, Bis(trioctyltin)oxide], the “Acute Oral LD50” value [3] was > 5000 mg/kg, the “Acute Oral, comment” value [3] was “Practically Nontoxic” and the “Toxicity relative to TBTO” value [4] was “significantly less toxic than TBTO”. For the same molecule, the “Aquatic Toxicity 48 h LC50 Daphnia” value ([1]; solubility limit) was > 87,000 ug/L, the “Mutation Assays” value [5] was “Not Mutagenic” and the “Primary Eye Irritation, comment” value ([6]; rabbits) was “Slightly Irritating”. The “Primary Eye Irritation” value ([6]; score out of 110.0, rabbits) was 2.6, the “Primary Dermal Irritation, comment” value ([7]; rabbits) was “Slightly Irritating” and the “Primary Dermal Irritation” value ([7]; score out of 8.0, rabbits) was 1.75. The “Acute Dermal, comment” value ([8]; No more than Slightly) was “Slightly”, the “Acute Dermal LD50” value ([8]; in vivo, topical or ocular) was > 2000 mg/kg and the “Aquatic Toxicity 96 h LC50 Flathead Minnow” value ([2]; solubility limit) was > 13,500 ug/L.
